Results taken from ChEMBL document CHEMBL5352418, “Molecular networking assisted discovery and combinatorial biosynthesis of new antimicrobial pleuromutilins” (Eur J Med Chem, 2022).

System: Mycobacterium tuberculosis variant bovis
Experiment: Antibacterial activity against Mycobacterium bovis BCG ATCC 35743 constitutive expressing GFP assessed as bacterial growth inhibition at 20 uM by CLSI protocol based broth microdilution method
Assay type: functional
Settings: read-out: GI

Structure (SMILES) | inhibition of growth at 20 µM
C=C[C@]1(C)C[C@@H](OC(=O)CO)[C@@]2(C)C3C(=O)[C@H](O)CC3(CC[C@H]2C)[C@@H](C)[C@@H]1O (single isomer, unassigned) | 34%
C=C[C@]1(C)C[C@@H](OC(=O)CO)[C@@]2(C)C3C(=O)CC[C@@]3(CC[C@H]2C)[C@@H](C)[C@@H]1O (some centres undefined) | 50%
C=C[C@]1(C)C[C@@H](O)[C@@]2(C)C3C(=O)CC[C@@]3(CC[C@H]2C)[C@@H](C)[C@@H]1O (some centres undefined) | 48%
C=C[C@]1(C)C[C@@H](OC(C)=O)[C@@]2(C)C3=CC(=O)C[C@@]3([C@H](O)C[C@H]2C)[C@@H](C)[C@@H]1O | 34%
C=C[C@]1(C)C[C@@H](O)[C@@]2(C)C3[C@H](O)CC[C@@]3(CC[C@H]2C)[C@@H](C)[C@@H]1O (some centres undefined) | 36%
C=C[C@]1(C)C[C@@H](OC(=O)CO)[C@@]2(C)C3=CC(=O)C[C@@]3(CC[C@H]2C)[C@@H](C)[C@@H]1O | 62%
C[C@@H]1CC[C@@]23CCC(=O)C2[C@]1(C)[C@H](OC(=O)CO)C[C@@](C)([C@H](O)CO)[C@@H](O)[C@@H]3C (some centres undefined) | 20%
C=C[C@]1(C)C[C@@H](OC(C)=O)[C@@]2(C)C3[C@H](O)CC[C@@]3(CC[C@H]2C)[C@@H](C)[C@@H]1O (some centres undefined) | 43%
C=C[C@]1(C)C[C@@H](O)[C@@]2(C)C3CCC[C@@]3(CC[C@H]2C)[C@@H](C)C1 (some centres undefined) | 24%
